Test results as given in PubChem BioAssay AID248 (DTP/NCI, 2004).
Inconclusive results and toxic doses are left out. Cut-off read from the data, not from the text of the source: active = T/C of 150% or more; inactive = T/C below 125%.

Tested on: L1210 leukemia ip in BDF1 mice, survival T/C
Test: NCI In Vivo Anticancer Drug Screen. Data for tumor model L1210 Leukemia (intraperitoneal) in B6D2F1 (BDF1) mice
Conditions: endpoint: mean survival time, higher = longer survival
Outline: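 Read-out is survival time, reported as the treated-group measurement over the vehicle-control measurement.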

[1] = dose: 75.0 mg/kg/injection, schedule: Q01DX001 (ip), vehicle: saline
[2] = dose: 150.0 mg/kg/injection, schedule: Q01DX001 (ip), vehicle: saline
[3] = dose: 100.0 mg/kg/injection, schedule: Q04DX002 (ip), vehicle: saline with Tween-80
[4] = dose: 200.0 mg/kg/injection, schedule: Q04DX002 (ip), vehicle: saline with Tween-80
[5] = dose: 100.0 mg/kg/injection, schedule: Q01DX001 (ip), vehicle: saline
[6] = dose: 100.0 mg/kg/injection, schedule: Q01DX009 (ip), vehicle: saline
[7] = dose: 100.0 mg/kg/injection, schedule: Q04DX003 (ip), vehicle: saline
[8] = dose: 200.0 mg/kg/injection, schedule: Q01DX001 (ip), vehicle: saline
[9] = dose: 200.0 mg/kg/injection, schedule: Q01DX009 (ip), vehicle: saline
[10] = dose: 200.0 mg/kg/injection, schedule: Q04DX003 (ip), vehicle: saline
[11] = dose: 400.0 mg/kg/injection, schedule: Q01DX001 (ip), vehicle: saline
[12] = dose: 100.0 mg/kg/injection, schedule: Q04DX003 (ip), vehicle: Klucel (hydroxypropylcellulose) (HPC)
[13] = dose: 200.0 mg/kg/injection, schedule: Q04DX003 (ip), vehicle: Klucel (hydroxypropylcellulose) (HPC)
[14] = dose: 400.0 mg/kg/injection, schedule: Q04DX003 (ip), vehicle: Klucel (hydroxypropylcellulose) (HPC)
[15] = dose: 100.0 mg/kg/injection, schedule: Q04DX003 (ip), vehicle: saline with Tween-80
[16] = dose: 200.0 mg/kg/injection, schedule: Q04DX003 (ip), vehicle: saline with Tween-80
[17] = dose: 400.0 mg/kg/injection, schedule: Q04DX003 (ip), vehicle: saline with Tween-80
[18] = dose: 100.0 mg/kg/injection, schedule: Q01DX001 (ip), vehicle: Klucel (hydroxypropylcellulose) (HPC)
[19] = dose: 200.0 mg/kg/injection, schedule: Q01DX001 (ip), vehicle: Klucel (hydroxypropylcellulose) (HPC)

Measured: T/C

O=C(c1ccccc1)N(O)c1ccccc1
inactive: [1] 93 % of control | dose: 75.0 mg/kg/injection, schedule: Q01DX009 (ip), vehicle: saline 91 % of control | [2] 104 % of control | dose: 150.0 mg/kg/injection, schedule: Q01DX009 (ip), vehicle: saline 98 % of control | dose: 300.0 mg/kg/injection, schedule: Q01DX001 (ip), vehicle: saline 95 % of control | dose: 300.0 mg/kg/injection, schedule: Q01DX009 (ip), vehicle: saline 96 % of control

Nc1nc(N)c(-c2ccc(Cl)cc2)c(CN2C(=O)c3ccccc3C2=O)n1
inactive: dose: 75.0 mg/kg/injection, schedule: Q01DX001 (ip), vehicle: Klucel (hydroxypropylcellulose) (HPC) 97 % of control | dose: 150.0 mg/kg/injection, schedule: Q01DX001 (ip), vehicle: Klucel (hydroxypropylcellulose) (HPC) 92 % of control | dose: 300.0 mg/kg/injection, schedule: Q01DX001 (ip), vehicle: Klucel (hydroxypropylcellulose) (HPC) 92 % of control

C/C(=N\N=C(/C)c1ccc(C)cc1C)c1ccc(C)cc1C
inactive: [3] 98 % of control | [4] 95 % of control | dose: 400.0 mg/kg/injection, schedule: Q04DX002 (ip), vehicle: saline with Tween-80 103 % of control

NC(N)=N/N=C\c1c[nH]c2ccccc12
inactive: dose: 15.0 mg/kg/injection, schedule: Q01DX Z (ip), vehicle: carboxymethylcellulose (CMC) 102 % of control | dose: 30.0 mg/kg/injection, schedule: Q01DX Z (ip), vehicle: carboxymethylcellulose (CMC) 103 % of control | dose: 30.0 mg/kg/injection, schedule: Q01DX Z (oral), vehicle: carboxymethylcellulose (CMC) 89 % of control | dose: 60.0 mg/kg/injection, schedule: Q01DX Z (ip), vehicle: carboxymethylcellulose (CMC) 100 % of control | dose: 60.0 mg/kg/injection, schedule: Q01DX Z (oral), vehicle: carboxymethylcellulose (CMC) 92 % of control | dose: 120.0 mg/kg/injection, schedule: Q01DX Z (oral), vehicle: carboxymethylcellulose (CMC) 96 % of control | dose: 240.0 mg/kg/injection, schedule: Q01DX Z (oral), vehicle: carboxymethylcellulose (CMC) 96 % of control

CC(C)C(NC(=O)OCc1ccccc1)C(=O)O (stereo not given)
inactive: dose: 9.37 mg/kg/injection, schedule: Q01DX009 (ip), vehicle: saline 98 % of control | dose: 18.75 mg/kg/injection, schedule: Q01DX009 (ip), vehicle: saline 93 % of control | dose: 37.5 mg/kg/injection, schedule: Q01DX009 (ip), vehicle: saline 100 % of control | dose: 37.5 mg/kg/injection, schedule: Q04DX003 (ip), vehicle: saline 103 % of control | [1] 96 % of control | dose: 75.0 mg/kg/injection, schedule: Q04DX003 (ip), vehicle: saline 101 % of control | [2] 102 % of control

O=C(NO)c1cccc(C(=O)NO)n1
inactive: dose: 237.0 mg/kg/injection, schedule: Q01DX015 (ip), vehicle: water 113 % of control | dose: 356.0 mg/kg/injection, schedule: Q01DX015 (ip), vehicle: water 114 % of control | dose: 533.0 mg/kg/injection, schedule: Q01DX015 (ip), vehicle: water 104 % of control

CC(C)(O)C(O)c1ccccc1 (stereo not given)
inactive: [5] 103 % of control | [6] 98 % of control | [7] 97 % of control | [8] 101 % of control | [9] 93 % of control | [10] 97 % of control | [11] 95 % of control | dose: 400.0 mg/kg/injection, schedule: Q04DX003 (ip), vehicle: saline 100 % of control

O=C(Nc1ccc(F)cc1)C(c1ccccc1)c1ccccc1
inactive: dose: 100.0 mg/kg/injection, schedule: Q01DX009 (ip), vehicle: Klucel (hydroxypropylcellulose) (HPC) 108 % of control | [12] 90 % of control | dose: 200.0 mg/kg/injection, schedule: Q01DX009 (ip), vehicle: Klucel (hydroxypropylcellulose) (HPC) 101 % of control | [13] 93 % of control | dose: 400.0 mg/kg/injection, schedule: Q01DX009 (ip), vehicle: Klucel (hydroxypropylcellulose) (HPC) 95 % of control | [14] 88 % of control

CCNC(C)(C)C(O)c1ccc(Cl)s1 (stereo not given)
inactive: dose: 100.0 mg/kg/injection, schedule: Q01DX009 (ip), vehicle: saline with Tween-80 98 % of control | [15] 100 % of control | dose: 200.0 mg/kg/injection, schedule: Q01DX009 (ip), vehicle: saline with Tween-80 98 % of control | [16] 102 % of control | [17] 103 % of control

CC(I)CNc1ccc(C(=O)O)c(O)c1 (stereo not given)
inactive: dose: 100.0 mg/kg/injection, schedule: Q04DX003 (ip), vehicle: gum acacia 97 % of control | dose: 200.0 mg/kg/injection, schedule: Q04DX003 (ip), vehicle: gum acacia 89 % of control | dose: 400.0 mg/kg/injection, schedule: Q04DX003 (ip), vehicle: gum acacia 94 % of control

CCOc1ccc(-n2c(=O)c(N=Nc3ccccc3OC)c(O)n(-c3ccccc3OC)c2=S)cc1
inactive: dose: 50.0 mg/kg/injection, schedule: Q01DX001 (ip), vehicle: Klucel (hydroxypropylcellulose) (HPC) 91 % of control | [18] 100 % of control | [19] 87 % of control

Nc1ncnc2nc(-c3cc(Cl)c(OCc4ccccc4)c(Cl)c3)[nH]c12
inactive: [18] 100 % of control | [19] 89 % of control | dose: 400.0 mg/kg/injection, schedule: Q01DX001 (ip), vehicle: Klucel (hydroxypropylcellulose) (HPC) 92 % of control

CC(CO)NC(=O)C1C=C2c3cccc4[nH]cc(c34)CC2N(C)C1 (stereo not given)
inactive: dose: 3.12 mg/kg/injection, schedule: Q04DX003 (ip), vehicle: saline 114 % of control | dose: 6.25 mg/kg/injection, schedule: Q04DX003 (ip), vehicle: saline 114 % of control | dose: 12.5 mg/kg/injection, schedule: Q01DX009 (ip), vehicle: saline 109 % of control | dose: 12.5 mg/kg/injection, schedule: Q04DX003 (ip), vehicle: saline 114 % of control | dose: 25.0 mg/kg/injection, schedule: Q01DX009 (ip), vehicle: saline 95 % of control | dose: 25.0 mg/kg/injection, schedule: Q04DX003 (ip), vehicle: saline 101 % of control | dose: 50.0 mg/kg/injection, schedule: Q01DX009 (ip), vehicle: saline 96 % of control | dose: 50.0 mg/kg/injection, schedule: Q04DX003 (ip), vehicle: saline 103 % of control | [6] 95 % of control | [7] 100 % of control | [9] 96 % of control | [10] 102 % of control

COCc1c(C)cc(C)cc1C
inactive: dose: 50.0 mg/kg/injection, schedule: Q01DX001 (ip), vehicle: saline 91 % of control | [5] 107 % of control | [8] 103 % of control | [11] 113 % of control

Nc1cc(Cl)cc2c1nc(NCCO)c1ccccc12
inactive: [12] 97 % of control | [13] 90 % of control | [14] 98 % of control

Brc1c(Br)c(Br)c(Br)c(Br)c1Br
inactive: [5] 93 % of control | [8] 92 % of control | [11] 98 % of control

C/C=C/CC1(CC)C(=O)NC(=S)NC1=O
inactive: [1] 107 % of control | [2] 113 % of control

CC1(C)C2CCC1(C)C(C(=O)C(F)(F)F)C2=O.CC1(C)C2CCC1(C)C(C(=O)C(F)(F)F)C2=O.[Mn] (stereo not given)
inactive: dose: 50.0 mg/kg/injection, schedule: Q04DX002 (ip), vehicle: saline with Tween-80 94 % of control | [3] 98 % of control | [4] 98 % of control

O=[N+]([O-])C1CC12c1ccccc1-c1ccccc12 (stereo not given)
inactive: dose: 75.0 mg/kg/injection, schedule: Q01DX001 (ip), vehicle: carboxymethylcellulose (CMC) 106 % of control | dose: 150.0 mg/kg/injection, schedule: Q01DX001 (ip), vehicle: carboxymethylcellulose (CMC) 103 % of control | dose: 300.0 mg/kg/injection, schedule: Q01DX001 (ip), vehicle: carboxymethylcellulose (CMC) 97 % of control

CCN(CC)C(=O)Nc1cccc(O)c1
inactive: [15] 94 % of control | [16] 91 % of control | [17] 93 % of control
